Where “and” joins values, the source holds several entries; their conditions need not be identical. Equal entries are not always repeated. ± gives the expanded uncertainty stated by the source.
Settings: Liquid, Closed cell (Static) method

Row | vapor or sublimation pressure (303.15 K) [kPa] | vapor or sublimation pressure (313.15 K) | vapor or sublimation pressure (323.15 K) | SMILES
1 | 0.45 ± 0.02 | 0.87 ± 0.02 kPa and 0.89 ± 0.02 kPa | 1.59 ± 0.02 kPa and 1.61 ± 0.02 kPa | CCCOCCO [2-propoxyethanol]
2 | 25.16 ± 0.05 | 37.42 ± 0.07 kPa | 54.11 ± 0.1 kPa | CCCCCC [hexane]
3 | 7.92 ± 0.03 | 12.24 ± 0.03 kPa | 18.91 ± 0.04 kPa | CCCCCCC [heptane]

From the NIST ThermoML archive (doi:10.1016/j.jct.2008.07.024)
